Entries after “also recorded” stand apart in the source; their conditions may differ.
Key:
[1] = test system: poly(I)·poly(C) action (2-5A synthetase-endonuclease system); test: Antagonism of poly(I).poly(C) protein synthesis inhibition in extracts of interferon-treated mouse L cells; assay type: biochemical
Text: (§1) The preparation of cell extracts and the techniques and conditions of cell-free protein synthesis in extracts of interferon-treated or untreated mouse L cells have been described elsewhere.
This observation implied that the inhibitory action of poly(I)·poly(C) is mediated chiefly by the 2-5A synthetase-endonuclease system. […] As observed previously with p5'A2'p5'A2'p5'A, the reversal of inhibition of poly(I)·poly(C) was not complete.

[2] = test system: 2-5A-dependent endoribonuclease; test: Prevention of 2-5A-activated degradation of [3H]-encephalomyocarditis virus RNA in extracts of mouse L cells; assay type: biochemical
Text: (§2) To ascertain if the 2'-terminally modified (2'→5')oligonucleotides prevented the protein synthesis inhibitory action of 2-5A by the same mechanism as does p5'A2'p5'A2'p5'A (i.e., by preventing the activation of the 2-5A-dependent endoribonuclease), the 2-5A-enhanced degradation of [^3 H]-encephalomyocarditis virus RNA was followed in extracts of mouse L cells in the presence or absence of the modified tetramer monophosphate (12). The 2-5A-activated degradation of encephalomyocarditis virus RNA was prevented by 12; furthermore, there was good agreement between the results since in both instances a concentration of 8×10^-5 M 12 caused approximately a 1000-fold increase in the concentration of ppp5'A2'p5'A2'p5'A needed to effect 50% of the maximum inhibition.

[3] = target: antip5'A2'p5'A2'p5'Aserum; test: Reactivity of 2',5'-oligoadenylates with antibody (enzyme-linked immunoassay); assay type: binding; settings: for IC50: enzyme-linked immunoassay, read-out: IC50, concentration required to achieve a 50% inhibition of reactivity with antip5'A2'p5'A2'p5'Aserum
Description: ^a Concentration in nanomolar required to achieve a 50% inhibition of
reactivity with antip5'A2'p5'A2'p5'Aserum in an enzymelinked immunoassay.

[4] = Stability of 2',5'-oligoadenylates in mouse L-cell extracts, immunochemical study; assay type: in vitro ADME
Description: Oligoadenylates at a final concentration of 400 nM were incubated under protein synthesis conditions (minus [^3 H]-leu and EMCV RNA) at 30° C. for 0-6 hours. Samples were removed diluted with an equal volume of phosphate-buffered saline (PBS, 0.01M sodium phosphate, pH 7.4, 0.14M NaCl) with added 0.05% polyoxyethylene sorbitan monolaurate, (PSM) and then heated at 95° C. for 10-15 minutes. After cooling, the samples were centrifuged for 1 min. at room temperature in an Eppendorf microfuge. The supernatant samples were serially diluted (three-fold) in 0.05% PSM prior to analysis in a competitive enzyme-linked antibody assay.
In a second series of experiments, the degradation of both the 5'-monophosphates and 5'-triphosphate of the terminally modified oligomers was compared to the degradation of the corresponding unmodified mono- and tri-phosphates. In this case, however, the course of reaction was followed using an immunoenzymometric assay for 2-5A and its derivatives. The antiserum employed in this study was inhibited 50% by both the unmodified and 2'-terminally modified 2',5'-oligoadenylates in the nanomolar range, the tetramer oligoadenylates being 2-5 times more reactive than the corresponding trimer species (Table 3, experimental). In contrast, the dimers were much less reactive, requiring concentrations of about 300 nM to achieve this same level of inhibition. […]

[5] = test system: protein synthesis in mouse L cell extracts programmed by encephalomyocarditis virus RNA; test: Inhibition of protein synthesis (translation) in extracts of mouse L cells programmed with encephalomyocarditis virus RNA; assay type: biochemical; settings: tetramer (12) alone
Description: as §1
(§3) This observation provided a relatively simple approach to determine if a given nucleotide or oligoribonucleotide is capable of significant binding to the 2-5A-activated ribonuclease. For this reason, the (2'→5')oligoadenylates 5'-monophosphates, 11 and 12, were evaluated first for their ability to block the translational inhibitory effects of ppp5'A2'p5'A2'p5'A in extracts of mouse L cells programmed by encephalomyocarditis virus RNA. In the experiment, the 2-5A trimer, ppp5'A2'p5'A2'p5'A, was added in varying concentrations, with or without the tetranucleotide 5'-monophosphate inhibited translation with a concentration for half-maximal response of ~2×10^-9 M in agreement with other values in the literature. However, when 12 was also present at a concentration of 8×10^-5 M, there was at least a 1000-fold increase in the concentration of 2-5A trimer triphosphate required to bring about a half-maximal inhibition of protein synthesis.

2-5A synthetase = test: Kinetics of 2-5A synthesis in the presence of compound 11 or 12; assay type: biochemical, mouse; settings: standard synthetase assay conditions
Description: Incubation was at 30° for the designated times at which aliquots (35 μL) were removed and diluted 10× in cold H2 O. These diluted reaction mixtures were frozen at -90° until analysis.
Reaction mixture were analyzed by thin layer chromatography by spotting 2 μL of the diluted reaction mixture on a plastic PEI cullulose plate (E. Merck). The plate was developed first with solvent system D and then three times with solvent system C. […] A template of the developed film was made with aid of tracing paper, and this was used to locate the corresponding radioactive spots on the tlc plate. The plate was cut according to the positions indicated by the template, and the resulting pieces were counted with 10 mls of fluor in a standard scintillation vial. The percentage of each radioactive component by the gross radioactivity associated with all the components visualized on tlc. The position of ATP, pp5'A2'p5'A,pppA2'p5'A2'p5'A, etc. were determined from authentic markers.

[6] = test system: 2-5A-activated ribonuclease (translational inhibitory effects of ppp5'A2'p5'A2'p5'A); test: Antagonism of 2-5A trimer triphosphate translational inhibition in mouse L cell extracts; assay type: biochemical
Description: as §1
as §3, with “synthesis. […]” for “synthesis.”

[7] = test system: 2-5A-dependent endoribonuclease (RNase L); test: 2-5A-enhanced degradation of [3H]-encephalomyocarditis virus RNA in cell extracts (activation of RNase L); assay type: biochemical, mouse
Text: as §2
The enhanced activity of the 2'-terminally modified tetramer triphosphate 13 also was observed when the degradation of [^3 H]-encephalomycarditis virus RNA in cell extracts was examined. Modified tetramer triphosphate (13) enhanced degradation of labeled RNA with a concentration of 9×10^-11 M necessary to elicit a half-maximal response compared to ppp5'A2'p5'A2'p5'A which required a concentration of 9×10^-10 M to elicit a half-maximal response. In addition, there was good correlation between these values and the corresponding concentrations response for inhibition of protein synthesis.

reticulocyte lysate = settings: compared to tetramer triphosphate; cited from earlier work

Compound	prevention of protein synthesis inhibition caused by poly(I).poly(C) (in words) [1]	potency in preventing the inhibitory action of poly(I).poly(C) (in words) ([1]; 11 vs 12)	prevention of 2-5A-activated degradation of encephalomyocarditis virus RNA [2]	increase in the concentration of ppp5'A2'p5'A2'p5'A needed to effect 50% of the maximum inhibition ([2]; 8×10^-5 M 12)	IC50 [3]	stability in cell-free extracts relative to unmodified 2',5'-oligoadenylates [4]	antibody reactivity during incubation ([4]; 4×10^-7 M oligomer, 6 hours of incubation)	effect on translation by itself [5]	effect on the rate of synthesis of 2-5A (2-5A synthetase)	effect on the rate of synthesis of 2-5A (2-5A synthetase; listed as "tailed" (pA)4)	effectiveness as antagonist of 2-5A action (in words) [6]	increase in the concentration of 2-5A trimer triphosphate required for half-maximal inhibition of protein synthesis ([6]; 12 at 8×10^-5 M)	antibody inhibition by mononucleotides and adenosine [3]	activity as activator of RNase L (in words) [7]	biological activity in reticulocyte lysate (reticulocyte lysate)
5'-monophosphoryladenylyl-(2'→5')-adenylyl-(2'→5')adenylyl(2'→6')(3'-aza-4'-hexyl-1',2',3',4'-tetradeoxyhexopyranos-1'-yl)adenine [Compound 12]	not complete	approximately equal potency	prevented	~1000 fold	1 nM	markedly more stable in cell-free extracts than the unmodified 2',5'-oligoadenylates	did not decrease even after 6 hours of incubation; also recorded: increased slightly with time	no significant effect on translation	neither 11 nor 12 affected the rate of formation of 2-5A	neither "tailed" (pA)3 nor "tailed" (pA)4 had any significant effect on the rate of synthesis	somewhat more effective than the trimer 11 in preventing 2-5A action	≥ 1000 fold			
Nc1ncnc2c1ncn2[C@@H]1O[C@H](CO)[C@@H](O)[C@H]1O [adenosine]													inhibitory only at millimolar concentrations		
ppp5'A2'p5'A2'p5'A					18 nM									quite similar as activators of RNase L	anomalously low compared to tetramer triphosphate

Reference: patent US4515781A, “2',5'-Riboadenylate-morpholinoadenylate nucleotides” (The United States of America as represented by the …, priority 1983, dated 1985)
